Common to all, as to assay type: functional
Assay [1] has as its system Staphylococcus aureus. Briefly: Antibacterial activity against methicillin-resistant Staphylococcus aureus isolate assessed as percent susceptible isolates by CLSI dilution method.
Assay [2] deals with Staphylococcus aureus. Briefly: Antibacterial activity against methicillin-resistant Staphylococcus aureus by CLSI dilution method.
Assay [3] relates to Staphylococcus aureus. Briefly: Antibacterial activity against methicillin-susceptible Staphylococcus aureus isolate by CLSI dilution method.
For assay [4], the system named is Staphylococcus aureus. Briefly: (§1) Antibacterial activity against methicillin-resistant Staphylococcus aureus isolate assessed as percent resistant isolates by CLSI dilution method.
Assay [5] concerns Staphylococcus aureus. The description is as §1. The source holds these as a separate data set.
The test system of assay [6] is Staphylococcus sp. Briefly: Antibacterial activity against methicillin-resistant coagulase-negative Staphylococcus sp. assessed as percent resistant isolates by CLSI dilution method.
In assay [7] the test system is Staphylococcus aureus. Put plainly: Antibacterial activity against methicillin-susceptible Staphylococcus aureus isolate assessed as […] isolates by CLSI dilution method.
The test system of assay [8] is Staphylococcus sp. Briefly: Antibacterial activity against methicillin-susceptible coagulase-negative Staphylococcus sp. by CLSI dilution method.
Assay [9] deals with Staphylococcus sp. Put plainly: (§2) Antibacterial activity against methicillin-susceptible coagulase-negative Staphylococcus sp. assessed as percent susceptible isolates by CLSI dilution method.
Assay [10] has as its system Staphylococcus sp. Briefly: Antibacterial activity against methicillin-resistant coagulase-negative Staphylococcus sp. by CLSI dilution method.
For assay [11], the system named is Staphylococcus sp. The assay is described as §2. The source holds these as a separate data set.
In assay [12] the test system is Staphylococcus sp. Put plainly: Antibacterial activity against methicillin-susceptible coagulase-negative Staphylococcus sp. assessed as percent resistant isolates by CLSI dilution method.

Structures are written as SMILES. Converted amounts (≈) assume the structure as drawn. Bounds are passed on as bounds.

As usually defined, the MIC50 is the lowest concentration that inhibits either 50% of growth or 50% of the strains tested, depending on the study. For orientation: MIC90 means the lowest concentration that inhibits either 90% of growth or 90% of the strains tested, depending on the study. A low value points to greater potency. Take `CC[C@H]1OC(=O)[C@H](C)[C@@H](O[C@H]2C[C@@](C)(OC)[C@@H](O)[C@H](C)O2)[C@H](C)[C@@H](O[C@@H]2O[C@H](C)C[C@H](N(C)C)[C@H]2O)[C@](C)(O)C[C@@H](C)C(=O)[C@H](C)[C@@H](O)[C@]1(C)O` [ERYTHROMYCIN]: the Activity in the assay on Staphylococcus aureus [1] came out at 5%; in the assay with Staphylococcus aureus [4], 12%; with Staphylococcus aureus [5] it was 95%; in the assay with Staphylococcus sp. [6], 80%; in the assay on Staphylococcus aureus [7], 88%; in the assay with Staphylococcus sp. [9] it was 78%. The Activity in the assay on Staphylococcus sp. [11] came to 20%; with Staphylococcus sp. [12] it was 17%. The MIC50 was over 128 µg/mL in the assay on Staphylococcus aureus [2], 0.5 µg/mL (≈ 0.681 µM) in the assay with Staphylococcus aureus [3], 0.25 µg/mL (≈ 0.341 µM) against Staphylococcus sp. [8] and 128 µg/mL (≈ 174 µM) against Staphylococcus sp. [10]. Further, the MIC90 against Staphylococcus aureus [3] is over 128 µg/mL; in the assay on Staphylococcus sp. [8], 128 µg/mL (≈ 174 µM); in the assay on Staphylococcus sp. [10] it was over 128 µg/mL.
For the compound `CCC[C@@H]1C[C@@H](C(=O)N[C@@H]([C@H]2O[C@H](SC)[C@H](O)[C@@H](O)[C@H]2O)[C@H](C)Cl)N(C)C1` [CLINDAMYCIN], the Activity in the assay with Staphylococcus aureus [1] worked out at 12%; in the assay on Staphylococcus aureus [4] it was 0%; in the assay on Staphylococcus aureus [5], 88%; in the assay with Staphylococcus sp. [6], 54%; with Staphylococcus aureus [7], 100%; in the assay with Staphylococcus sp. [9], 97%. Also, the results for the Activity with Staphylococcus sp. [11] and in the assay with Staphylococcus sp. [12] were 44% and 3%, respectively. Further, the MIC50 in the assay on Staphylococcus aureus [2] is over 128 µg/mL; in the assay with Staphylococcus aureus [3] it was 0.12 µg/mL (≈ 0.282 µM); in the assay on Staphylococcus sp. [8], 0.12 µg/mL (≈ 0.282 µM); with Staphylococcus sp. [10], over 128 µg/mL. Moreover, the MIC90 with Staphylococcus aureus [2] was over 128 µg/mL; in the assay on Staphylococcus aureus [3] it was 0.12 µg/mL (≈ 0.282 µM); in the assay on Staphylococcus sp. [8], 0.25 µg/mL (≈ 0.588 µM); in the assay with Staphylococcus sp. [10], over 128 µg/mL.
With `CC(=O)NC[C@H]1CN(c2ccc(N3CCOCC3)c(F)c2)C(=O)O1` [LINEZOLID], the Activity in the assay with Staphylococcus aureus [1], with Staphylococcus aureus [7], in the assay with Staphylococcus sp. [9] and in the assay with Staphylococcus sp. [11] was 100% throughout. The MIC50 in the assay on Staphylococcus aureus [2] turned out to be 2 µg/mL (≈ 5.93 µM); against Staphylococcus aureus [3], 4 µg/mL (≈ 11.9 µM); against Staphylococcus sp. [8], 1 µg/mL (≈ 2.96 µM); with Staphylococcus sp. [10], 1 µg/mL (≈ 2.96 µM). For the same compound, the MIC90 with Staphylococcus aureus [2] turned out to be 2 µg/mL (≈ 5.93 µM); with Staphylococcus aureus [3], 4 µg/mL (≈ 11.9 µM); in the assay on Staphylococcus sp. [8], 2 µg/mL (≈ 5.93 µM); against Staphylococcus sp. [10] it was 2 µg/mL (≈ 5.93 µM).
`CN[C@H](CC(C)C)C(=O)N[C@H]1C(=O)N[C@@H](CC(N)=O)C(=O)N[C@H]2C(=O)N[C@H]3C(=O)N[C@H](C(=O)N[C@H](C(=O)O)c4cc(O)cc(O)c4-c4cc3ccc4O)[C@H](O)c3ccc(c(Cl)c3)Oc3cc2cc(c3O[C@@H]2O[C@H](CO)[C@@H](O)[C@H](O)[C@H]2O[C@H]2C[C@](C)(N)[C@H](O)[C@H](C)O2)Oc2ccc(cc2Cl)[C@H]1O` [VANCOMYCIN]: the Activity stood at 100% in the assay on Staphylococcus aureus [1]; 0% in the assay on Staphylococcus aureus [4]; 0% in the assay with Staphylococcus aureus [5]; 0% in the assay with Staphylococcus sp. [6]; 100% with Staphylococcus aureus [7]; 100% in the assay on Staphylococcus sp. [9]. Further, the Activity is reported as 99% in the assay with Staphylococcus sp. [11] and 0% in the assay on Staphylococcus sp. [12]. Moreover, the MIC50 in the assay on Staphylococcus aureus [2], against Staphylococcus aureus [3], against Staphylococcus sp. [8] and against Staphylococcus sp. [10] was 1 µg/mL (≈ 0.69 µM) in each case. The MIC90 against Staphylococcus aureus [2] is 1 µg/mL (≈ 0.69 µM); in the assay on Staphylococcus aureus [3], 1 µg/mL (≈ 0.69 µM); against Staphylococcus sp. [8], 2 µg/mL (≈ 1.38 µM); with Staphylococcus sp. [10], 2 µg/mL (≈ 1.38 µM).

Values taken from ChEMBL document CHEMBL1150783, “In vitro activities of CG400549, a novel FabI inhibitor, against recently isolated clinical staphylococcal strains in Korea” (2007).
